In PubChem BioAssay AID330 (DTP/NCI, 2004):
Values joined by “and” are separate entries in the source; they are usually repeats but may differ in a detail not shown here. Equal entries are not always repeated. Toxic doses and inconclusive results are not listed.

Tested on: P388 leukemia ip, CD2F1 mice, survival T/C
Test: NCI In Vivo Anticancer Drug Screen. Data for tumor model P388 Leukemia (intraperitoneal) in CD2F1 (CDF1) mice
Conditions: endpoint: median survival time, higher = longer survival
Summary of the method: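 Mice carrying the transplanted tumor received test compound or vehicle. Survival was recorded in each group, and the value is the treated-group measurement divided by that of the vehicle-treated control group.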

[1] = dose: 6.25 mg/kg/injection, schedule: Q01DX005 (ip), vehicle: saline
[2] = dose: 12.5 mg/kg/injection, schedule: Q01DX005 (ip), vehicle: saline
[3] = dose: 60.0 mg/kg/injection, schedule: Q01DX005 (ip), vehicle: Klucel (hydroxypropylcellulose) (HPC)
[4] = dose: 120.0 mg/kg/injection, schedule: Q01DX005 (ip), vehicle: Klucel (hydroxypropylcellulose) (HPC)
[5] = dose: 50.0 mg/kg/injection, schedule: Q01DX005 (ip), vehicle: saline
[6] = dose: 100.0 mg/kg/injection, schedule: Q01DX005 (ip), vehicle: saline
[7] = dose: 200.0 mg/kg/injection, schedule: Q01DX005 (ip), vehicle: saline
[8] = dose: 50.0 mg/kg/injection, schedule: Q01DX005 (ip), vehicle: Klucel (hydroxypropylcellulose) (HPC)
[9] = dose: 100.0 mg/kg/injection, schedule: Q01DX005 (ip), vehicle: Klucel (hydroxypropylcellulose) (HPC)
[10] = dose: 200.0 mg/kg/injection, schedule: Q01DX005 (ip), vehicle: Klucel (hydroxypropylcellulose) (HPC)
[11] = dose: 50.0 mg/kg/injection, schedule: Q01DX005 (ip), vehicle: saline with Tween-80
[12] = dose: 200.0 mg/kg/injection, schedule: Q01DX005 (ip), vehicle: saline with Tween-80
[13] = dose: 12.5 mg/kg/injection, schedule: Q01DX005 (ip), vehicle: saline with Tween-80
[14] = dose: 60.0 mg/kg/injection, schedule: Q01DX005 (ip), vehicle: saline with Tween-80
[15] = dose: 240.0 mg/kg/injection, schedule: Q01DX005 (ip), vehicle: saline with Tween-80

`O=c1cccc2n1C[C@H]1C[C@@H]2CN2CCCC[C@H]12` was tested, and the T/C [1] was 99 % of control and the T/C [2] was 99 % of control.
With `c1ccc(-c2nnc3sc4ccccc4n23)cc1` the T/C [3] was 105 % of control, the T/C [4] was 96 % of control and the T/C (dose: 240.0 mg/kg/injection, schedule: Q01DX005 (ip), vehicle: Klucel (hydroxypropylcellulose) (HPC)) was 94 % of control.
For `C=C(Cl)CNc1ccccc1C(=O)OC`, the T/C (dose: 25.0 mg/kg/injection, schedule: Q04DX003 (ip), vehicle: Klucel (hydroxypropylcellulose) (HPC)) was 100 % of control, the T/C (dose: 50.0 mg/kg/injection, schedule: Q04DX003 (ip), vehicle: Klucel (hydroxypropylcellulose) (HPC)) was 100 % of control and 103 % of control and the T/C (dose: 100.0 mg/kg/injection, schedule: Q04DX003 (ip), vehicle: Klucel (hydroxypropylcellulose) (HPC)) was 100 % of control and 110 % of control. For the same compound, the T/C (dose: 200.0 mg/kg/injection, schedule: Q04DX003 (ip), vehicle: Klucel (hydroxypropylcellulose) (HPC)) was 103 % of control and 106 % of control and the T/C (dose: 400.0 mg/kg/injection, schedule: Q04DX003 (ip), vehicle: Klucel (hydroxypropylcellulose) (HPC)) was 100 % of control and 108 % of control.
With `CCCC(O)C[N+](=O)[O-]` (centres undefined) the T/C (dose: 100.0 mg/kg/injection, schedule: Q04DX003 (ip), vehicle: saline) was 109 % of control, the T/C (dose: 200.0 mg/kg/injection, schedule: Q04DX003 (ip), vehicle: saline) was 109 % of control and the T/C (dose: 400.0 mg/kg/injection, schedule: Q04DX003 (ip), vehicle: saline) was 118 % of control.
With `CC(=O)Oc1ccc(/C=N/NC(N)=S)nc1` the T/C (dose: 4.0 mg/kg/injection, schedule: Q01DX009 (ip), vehicle: saline with Tween-80) was 154 % of control, the T/C (dose: 14.6 mg/kg/injection, schedule: Q01DX009 (ip), vehicle: saline with Tween-80) was 163 % of control and the T/C (dose: 22.0 mg/kg/injection, schedule: Q01DX009 (ip), vehicle: saline with Tween-80) was 177 % of control. The T/C (dose: 33.0 mg/kg/injection, schedule: Q01DX009 (ip), vehicle: saline with Tween-80) was 181 % of control, the T/C (dose: 37.5 mg/kg/injection, schedule: Q01DX009 (ip), vehicle: saline with Tween-80) was 170 % of control and the T/C (dose: 50.0 mg/kg/injection, schedule: Q01DX009 (ip), vehicle: saline with Tween-80) was 204 % of control. The T/C (dose: 75.0 mg/kg/injection, schedule: Q01DX009 (ip), vehicle: saline with Tween-80) was 173 % of control and the T/C (dose: 150.0 mg/kg/injection, schedule: Q01DX009 (ip), vehicle: saline with Tween-80) was 88 % of control.
For `CCC1CN1P(=O)(OCCC#N)N1CC1CC` (centres undefined), the T/C (dose: 12.5 mg/kg/injection, schedule: Q01DX009 (ip), vehicle: saline) was 100 % of control, the T/C (dose: 25.0 mg/kg/injection, schedule: Q01DX009 (ip), vehicle: saline) was 104 % of control and the T/C (dose: 50.0 mg/kg/injection, schedule: Q01DX009 (ip), vehicle: saline) was 109 % of control. The T/C (dose: 100.0 mg/kg/injection, schedule: Q04DX003 (ip), vehicle: saline with Tween-80) was 104 % of control, the T/C (dose: 200.0 mg/kg/injection, schedule: Q04DX003 (ip), vehicle: saline with Tween-80) was 100 % of control and the T/C (dose: 400.0 mg/kg/injection, schedule: Q04DX003 (ip), vehicle: saline with Tween-80) was 104 % of control.
In the case of `C1CSCN1`, the T/C [5] is reported as 107 % of control, the T/C [6] is reported as 100 % of control and the T/C [7] is reported as 115 % of control.
For `C=C1C(=O)OC2/C=C(\C)CC/C=C(\C(=O)O)CC/C=C(/C)CCC12` (centres undefined), the T/C (dose: 5.0 mg/kg/injection, schedule: Q01DX005 (ip), vehicle: Klucel (hydroxypropylcellulose) (HPC)) was 100 % of control, the T/C (dose: 10.0 mg/kg/injection, schedule: Q01DX005 (ip), vehicle: Klucel (hydroxypropylcellulose) (HPC)) was 117 % of control and the T/C (dose: 20.0 mg/kg/injection, schedule: Q01DX005 (ip), vehicle: Klucel (hydroxypropylcellulose) (HPC)) was 118 % of control. The T/C (dose: 40.0 mg/kg/injection, schedule: Q01DX005 (ip), vehicle: Klucel (hydroxypropylcellulose) (HPC)) was 115 % of control and the T/C (dose: 80.0 mg/kg/injection, schedule: Q01DX005 (ip), vehicle: Klucel (hydroxypropylcellulose) (HPC)) was 115 % of control.
`CC1(C(=O)O)NCCc2cc(O)c(O)cc21` (centres undefined) was tested, and the T/C [8] was 104 % of control, the T/C [9] was 104 % of control and the T/C [10] was 103 % of control.
`C#Cc1cccc(N=Cc2cc(Cl)cc(Br)c2O)c1` was tested, and the T/C [11] was 105 % of control, the T/C (dose: 100.0 mg/kg/injection, schedule: Q01DX005 (ip), vehicle: saline with Tween-80) was 102 % of control and the T/C [12] was 107 % of control.
With `CCOC(=O)CCC(Br)(Br)Br` the T/C (dose: 50.0 mg/kg/injection, schedule: Q01DX009 (ip), vehicle: Klucel (hydroxypropylcellulose) (HPC)) was 100 % of control, the T/C (dose: 100.0 mg/kg/injection, schedule: Q01DX009 (ip), vehicle: Klucel (hydroxypropylcellulose) (HPC)) was 100 % of control and the T/C (dose: 200.0 mg/kg/injection, schedule: Q01DX009 (ip), vehicle: Klucel (hydroxypropylcellulose) (HPC)) was 97 % of control.
With `O=C(O)c1cc2ccccc2c(N=Nc2cc(C(F)(F)F)ccc2Cl)c1O` the T/C [13] was 102 % of control, the T/C (dose: 25.0 mg/kg/injection, schedule: Q01DX005 (ip), vehicle: saline with Tween-80) was 100 % of control and the T/C [11] was 98 % of control and 100 % of control. The T/C [12] was 86 % of control.
For `Cc1cc(N=Nc2ccc(-c3ccc(N=Nc4ccc(O)c(C(=O)O)c4)cc3)cc2)c(N)c(N=Nc2cc(C(=O)O)ccc2Cl)c1N`, the T/C [5] was 104 % of control, the T/C [6] was 104 % of control and the T/C [7] was 90 % of control.
With `CCCc1c(Cl)[nH]c(=O)n(C)c1=O` the T/C [8] was 111 % of control, the T/C [9] was 111 % of control and the T/C [10] was 97 % of control.
For `[Cu+2].[O-]/N=C/c1ccc(O)c(O)c1[O-].[O-]/N=C/c1ccc(O)c(O)c1[O-]`, the T/C [14] was 91 % of control, the T/C (dose: 120.0 mg/kg/injection, schedule: Q01DX005 (ip), vehicle: saline with Tween-80) was 87 % of control and the T/C [15] was 89 % of control.
In the case of `N#Cc1c(-c2ccc(Cl)cc2)c(-c2ccc(Cl)cc2)nn(CCOC(=O)CN)c1=O`, the T/C (dose: 3.13 mg/kg/injection, schedule: Q01DX005 (ip), vehicle: distilled water + Tween-80) is reported as 99 % of control and 100 % of control, the T/C (dose: 6.25 mg/kg/injection, schedule: Q01DX005 (ip), vehicle: distilled water + Tween-80) is reported as 100 % of control and 103 % of control and the T/C (dose: 12.5 mg/kg/injection, schedule: Q01DX005 (ip), vehicle: distilled water + Tween-80) is reported as 105 % of control and 115 % of control and 97 % of control. For the same compound, the T/C (dose: 12.5 mg/kg/injection, schedule: Q04DX002 (ip), vehicle: distilled water + Tween-80) was 103 % of control, the T/C (dose: 25.0 mg/kg/injection, schedule: Q01DX005 (ip), vehicle: distilled water + Tween-80) was 108 % of control and 120 % of control (2×) and the T/C (dose: 25.0 mg/kg/injection, schedule: Q04DX002 (ip), vehicle: distilled water + Tween-80) was 111 % of control and 112 % of control. The T/C (dose: 50.0 mg/kg/injection, schedule: Q01DX005 (ip), vehicle: distilled water + Tween-80) was 155 % of control and the T/C [5] was 116 % of control.
In the case of `CCN(CC)CCn1cnc2c(=S)[nH]c(=S)[nH]c21`, the T/C (dose: 100.0 mg/kg/injection, schedule: Q01DX001 (ip), vehicle: saline with Tween-80) is reported as 95 % of control, the T/C (dose: 200.0 mg/kg/injection, schedule: Q01DX001 (ip), vehicle: saline with Tween-80) is reported as 97 % of control and the T/C (dose: 400.0 mg/kg/injection, schedule: Q01DX001 (ip), vehicle: saline with Tween-80) is reported as 97 % of control.
`Cn1cnc([N+](=O)[O-])c1S(=O)(=O)NCN1CCOCC1` was tested, and the T/C (dose: 6.25 mg/kg/injection, schedule: Q01DX009 (ip), vehicle: Klucel (hydroxypropylcellulose) (HPC)) was 116 % of control and the T/C (dose: 12.5 mg/kg/injection, schedule: Q01DX009 (ip), vehicle: Klucel (hydroxypropylcellulose) (HPC)) was 119 % of control.
In the case of `O=C(Cc1nc2ccccc2nc1CC(=O)c1ccncc1)c1ccncc1`, the T/C (dose: 6.25 mg/kg/injection, schedule: Q01DX005 (ip), vehicle: saline with Tween-80) is reported as 102 % of control, the T/C [13] is reported as 90 % of control and the T/C [14] is reported as 93 % of control. The T/C [15] was 98 % of control.
`COc1cccc(/C=C/C(=O)C(CN(C)C)CN(C)C)c1` was tested, and the T/C [1] was 100 % of control and the T/C [2] was 106 % of control.
For `COc1cccc(C2c3cc4c(cc3OC(C)(N3CCCC3)C2C)OCO4)c1OC` (centres undefined), the T/C [3] was 99 % of control and the T/C [4] was 88 % of control.
For `CCCCOP(O)(=S)OCCCC.[Tb]`, the T/C (dose: 100.0 mg/kg/injection, schedule: Q04DX002 (ip), vehicle: saline with Tween-80) was 100 % of control, the T/C (dose: 200.0 mg/kg/injection, schedule: Q04DX002 (ip), vehicle: saline with Tween-80) was 96 % of control and the T/C (dose: 400.0 mg/kg/injection, schedule: Q04DX002 (ip), vehicle: saline with Tween-80) was 95 % of control.
With `CN(C)N1C(=O)c2ccccc2NC1c1ccccc1` (centres undefined) the T/C [8] was 87 % of control, the T/C [9] was 96 % of control and the T/C [10] was 94 % of control.
